According to PMC6469676 (SLAS discovery : advancing life sciences R & D, 2018):

Legend:
SNV = assay type: cell-based, Sin Nombre virus
in vitro = settings: African green monkey
[1] = tested on: SNV^R18 on DAF-functionalized beads; assay type: binding
[2] = tested on: SNV-induced cAMP production in CHO-A24 cells; assay type: cell-based
integrin αIIbβ3 = integrin αIIbβ3 (Homo sapiens, UniProt P05106+P08514); assay type: cell-based
Sin Nombre virus (SNV) = assay type: cell-based; settings: 10 µM
Hantaan virus (HTN) = assay type: cell-based; settings: 10 µM
[3] = tested on: SNV^F18 bound to Tanoue B cells; settings: read-out: IC50, competition binding vs SNV^F18 bound to Tanoue B cells

Chain of integrin αIIbβ3 (P08514 32-887 limits assumed): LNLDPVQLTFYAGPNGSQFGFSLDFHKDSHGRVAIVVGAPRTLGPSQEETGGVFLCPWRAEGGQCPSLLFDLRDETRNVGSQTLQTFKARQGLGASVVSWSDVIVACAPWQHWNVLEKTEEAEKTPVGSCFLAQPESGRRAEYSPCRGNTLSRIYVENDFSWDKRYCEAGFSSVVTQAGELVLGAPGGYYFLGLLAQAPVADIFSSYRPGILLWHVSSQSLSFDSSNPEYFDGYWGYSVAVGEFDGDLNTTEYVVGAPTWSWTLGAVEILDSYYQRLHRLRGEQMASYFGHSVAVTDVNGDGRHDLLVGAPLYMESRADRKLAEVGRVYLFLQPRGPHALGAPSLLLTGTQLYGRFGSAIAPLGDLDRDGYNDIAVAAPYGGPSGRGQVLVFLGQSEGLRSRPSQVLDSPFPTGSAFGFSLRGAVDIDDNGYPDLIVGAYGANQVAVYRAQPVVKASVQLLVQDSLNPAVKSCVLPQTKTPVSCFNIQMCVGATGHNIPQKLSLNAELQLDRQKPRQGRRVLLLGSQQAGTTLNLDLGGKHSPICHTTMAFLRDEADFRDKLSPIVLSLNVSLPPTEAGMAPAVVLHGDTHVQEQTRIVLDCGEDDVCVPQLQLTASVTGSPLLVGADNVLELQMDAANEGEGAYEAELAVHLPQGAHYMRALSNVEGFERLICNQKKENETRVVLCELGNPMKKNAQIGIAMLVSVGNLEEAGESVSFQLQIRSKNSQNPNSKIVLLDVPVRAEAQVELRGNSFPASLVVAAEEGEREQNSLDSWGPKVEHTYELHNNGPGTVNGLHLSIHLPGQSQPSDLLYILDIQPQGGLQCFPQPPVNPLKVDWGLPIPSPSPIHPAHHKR
Chain of integrin αIIbβ3 (P08514 891-1039 partner limits assumed): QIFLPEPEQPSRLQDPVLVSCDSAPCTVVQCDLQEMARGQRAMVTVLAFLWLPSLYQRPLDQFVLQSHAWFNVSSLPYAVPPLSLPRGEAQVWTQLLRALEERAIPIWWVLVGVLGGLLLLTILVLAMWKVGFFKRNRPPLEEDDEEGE
Chain of integrin αIIbβ3 (P05106 27-788): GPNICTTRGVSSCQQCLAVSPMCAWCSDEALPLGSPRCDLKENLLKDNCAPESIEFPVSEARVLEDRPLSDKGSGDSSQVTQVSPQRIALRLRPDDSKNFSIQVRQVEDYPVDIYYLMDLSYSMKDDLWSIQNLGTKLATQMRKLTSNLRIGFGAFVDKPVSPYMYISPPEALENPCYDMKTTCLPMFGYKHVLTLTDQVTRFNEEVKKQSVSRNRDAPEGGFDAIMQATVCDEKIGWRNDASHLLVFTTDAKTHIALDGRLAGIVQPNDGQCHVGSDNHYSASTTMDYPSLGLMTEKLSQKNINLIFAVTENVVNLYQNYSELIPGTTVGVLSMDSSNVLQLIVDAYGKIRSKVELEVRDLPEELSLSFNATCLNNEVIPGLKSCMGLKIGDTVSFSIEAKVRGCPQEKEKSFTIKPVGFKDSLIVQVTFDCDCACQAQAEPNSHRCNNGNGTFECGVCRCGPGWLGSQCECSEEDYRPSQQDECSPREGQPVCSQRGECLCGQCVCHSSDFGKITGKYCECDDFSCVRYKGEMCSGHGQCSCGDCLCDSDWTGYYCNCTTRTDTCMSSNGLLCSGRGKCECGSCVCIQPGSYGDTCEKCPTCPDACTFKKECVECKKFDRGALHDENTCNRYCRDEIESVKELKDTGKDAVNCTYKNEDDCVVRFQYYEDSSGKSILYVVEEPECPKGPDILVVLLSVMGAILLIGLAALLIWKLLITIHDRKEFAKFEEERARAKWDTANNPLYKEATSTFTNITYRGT

In the case of O=C(Nc1cc(C(=O)Nc2ccc(S(=O)(=O)O)cc2S(=O)(=O)O)cc(C(=O)Nc2ccc(S(=O)(=O)O)cc2S(=O)(=O)O)c1)Nc1cc(C(=O)Nc2ccc(S(=O)(=O)O)cc2S(=O)(=O)O)cc(C(=O)Nc2ccc(S(=O)(=O)O)cc2S(=O)(=O)O)c1 [NF449], the “reduction of viral N-protein relative to vehicle-treated cells” value (SNV) is reported as > 80%.
Work on COC(=O)Nc1nc2ccc(Sc3ccccc3)cc2[nH]1 [fenbendazole] yielded a viability (in vitro) of ~70%.
For Cc1cc2c(C(C)C)c(O)c(O)c(C=O)c2c(O)c1-c1c(C)cc2c(C(C)C)c(O)c(O)c(C=O)c2c1O [gossypol], the “koff, drop in bead fluorescence” value [1] was ~ 0.25 and the viability (in vitro) was ~30%.
O=C(Nc1ccc([N+](=O)[O-])cc1Cl)c1cc(Cl)ccc1O [niclosamide] showed a viability (in vitro) of ~50%.
With Cc1c(Cl)cccc1Nc1ccccc1C(=O)O [tolfenamic acid] the “koff, drop in bead fluorescence” value [1] was ~ 0.25.
With GRGDSP the “effect on SNV-stimulated cAMP” value [2] was “did not affect SNV-stimulated cAMP response” and the “effect on SNV-induced PAC-1 staining” value (integrin αIIbβ3) was “inhibited PAC1 staining”.
For antimycin, the “% inhibition of infection by SNV” value (Sin Nombre virus (SNV)) was ≥ 80%, the “% inhibition of infection by HTN” value (Hantaan virus (HTN)) was ≥ 80% and the “koff, drop in bead fluorescence” value [1] was ~ 0.25. For the same compound, the IC50 [3] was 10 µM, the “effect on SNV-stimulated cAMP” value [2] was “inhibited stimulation of cAMP” and the “effect on SNV-induced PAC-1 staining” value (integrin αIIbβ3) was “inhibited PAC-1 staining”. The “cytopathic effects after 24 hours” value (Vero E6 cells) was “minimal cytopathic effects”.
In the case of tocopherol, the “cytopathic effects after 24 hours” value (Vero E6 cells) is reported as “minimal cytopathic effects”.
